Reference: patent US8946426B2, “Substituted bicyclic heterocyclic compounds as gamma secretase modulators” (Janssen Pharmaceuticals, Inc., priority 2009, dated 2015)

Experiments:
[1] = test system: Aβ42; assay: Method 1: Aβ42 sandwich ELISA in supernatant of SKNBE2 cells carrying APP 695-wild type (Tables 7a, 7b); type: cell-based
Method: (§1) Screening was carried out using SKNBE2 cells carrying the APP 695-wild type, grown in Dulbecco's Modified Eagle's Medium/Nutrient mixture F-12 (DMEM/NUT-mix F-12) (HAM) provided by Gibco (cat no. 31330-38) containing 5% Serum/Fe supplemented with 1% non-essential amino acids. Cells were grown to near confluency.
(§2) The screening was performed using the assay as described in Citron et al (1997) Nature Medicine 3: 67. Briefly, cells were plated in a 96-well plate at about 10^5 cells/ml one day prior to addition of compounds. Compounds were added to the cells in Ultraculture (Lonza, BE12-725F) supplemented with 1% glutamine (Invitrogen, 25030-024) for 18 Hours. The media were assayed by two sandwich ELISAs, for Aβ42 and Aβtotal. Toxicity of the compounds was assayed by WST-1 cell proliferation reagent (Roche, 1 644 807) according to the manufacturer's protocol.
To quantify the amount of Aβ42 in the cell supernatant, commercially available Enzyme-Linked-Immunosorbent-Assay (ELISA) kits were used (Innotest® β-Amyloid(1-42), Innogenetics N.V., Ghent, Belgium). The Aβ42 ELISA was performed essentially according to the manufacturer's protocol. Briefly, the standards (dilutions of synthetic Aβ1-42) were prepared in polypropylene Eppendorf with final concentrations of 8000 down to 3.9 pg/ml (½ dilution step). Samples, standards and blanks (100 μl) were added to the anti-Aβ42-coated plate supplied with the kit (the capture antibody selectively recognizes the C-terminal end of the antigen). The plate was allowed to incubate 3 H at 25° C. in order to allow formation of the antibody-amyloid complex. Following this incubation and subsequent wash steps a selective anti-Aβ-antibody conjugate (biotinylated 3D6) was added and incubated for a minimum of 1 Hour in order to allow formation of the antibody-Amyloid-antibody-complex. After incubation and appropriate wash steps, a Streptavidine-Peroxidase-Conjugate was added, followed 30 minutes later by an addition of 3,3′,5,5′-tetramethylbenzidine (TMB)/peroxide mixture, resulting in the conversion of the substrate into a coloured product. This reaction was stopped by the addition of sulfuric acid (0.9 N) and the colour intensity was measured by means of photometry with an ELISA-reader with a 450 nm filter.
(§3) To obtain the values reported in Table 7a, the sigmoidal dose response curves were analysed by computerised curve-fitting, with percent of inhibition plotted against compound concentration. A 4-parameter equation (model 205) in XLfit was used to determine the IC50. The top and the bottom of the curve were fixed to 100 and 0, respectively, and the hill slope was fixed to 1. The IC50 represents the concentration of a compound that is required for inhibiting a biological effect by 50% (Here, it is the concentration where Aβ peptide level is reduced by 50%).
(§4) To obtain the values reported in Table 7b, the data were calculated as percentage of the maximum amount of amyloid Beta 42 measured in the absence of the test compound. The sigmoidal dose response curves were analyzed using non-linear regression analysis with percentage of the control plotted against the log concentration of the compound. A 4-parameter equation was used to determine the IC50. The values reported in Table 7b are averaged IC50 values.

[2] = test system: Aβtotal; assay: Method 1: Aβtotal sandwich ELISA in supernatant of SKNBE2 cells carrying APP 695-wild type (Tables 7a, 7b); type: cell-based
Method: as §1, §2
To quantify the amount of Aβtotal in the cell supernatant, samples and standards were added to a 6E10-coated plate. The plate was allowed to incubate overnight at 4° C. in order to allow formation of the antibody-amyloid complex. Following this incubation and subsequent wash steps a selective anti-Aβ-antibody conjugate (biotinylated 4G8) was added and incubated for a minimum of 1 Hour in order to allow formation of the antibody-Amyloid-antibody-complex. After incubation and appropriate wash steps, a Streptavidine-Peroxidase-Conjugate was added, followed 30 minutes later by an addition of Quanta Blu fluorogenic peroxidase substrate according to the manufacturer's instructions (Pierce Corp., Rockford, Ill.).
as §3, §4

[3] = Homo sapiens, SKNBE2, Table 7b, averaged IC50, non-linear regression of percentage of control vs log concentration, 4-parameter equation
[4] = Homo sapiens, Table 7a, SKNBE2 cells, compounds 18 h, XLfit 4-parameter fit of percent inhibition, top/bottom fixed to 100/0, hill slope 1
[5] = Table 7a, SKNBE2 cells, compounds 18 h, XLfit 4-parameter fit of percent inhibition, top/bottom fixed to 100/0, hill slope 1
[6] = Table 7b, averaged IC50, non-linear regression of percentage of control vs log concentration, 4-parameter equation

## COc1cccc(-c2nc3c(Nc4ccc(-c5cnc(C)s5)c(OC)c4)cccn3c2C)c1 [Compound 4]
[1]; [3]
  IC50: 0.063 µM
[1]; [4]
  IC50: 0.067 µM
[2]; [3]
  IC50: > 3 µM
[2]; [4]
  IC50: > 3 µM

## COc1cccc(-c2nc3c(Nc4ccc(-c5sc(C)nc5C)c(OC)c4)cccn3c2C)c1 [Compound 5]
[1]; [3]
  IC50: 0.078 µM
[1]; [4]
  IC50: 0.063 µM
[2]; [3]
  IC50: > 3 µM
[2]; [4]
  IC50: > 3 µM

## COc1cccc(-c2nc3c(Nc4ccc(-c5cn(C)nc5C)c(OC)c4)cccn3c2C)c1 [Compound 6]
[1]; [3]
  IC50: 0.102 µM
[1]; [4]
  IC50: 0.077 µM
[2]; [3]
  IC50: > 3 µM
[2]; [4]
  IC50: > 3 µM

## COc1cc(Nc2cccn3cc(-c4ccc(F)cc4)nc23)ccc1-c1oc(C)nc1C [Compound 7]
[1]; [3]
  IC50: 0.302 µM
[1]; [4]
  IC50: 0.334 µM
[2]; [3]
  IC50: > 10 µM
[2]; [4]
  IC50: > 10 µM

## COc1cc(Nc2cccn3c(C)c(-c4ccccc4)nc23)ccc1-c1oc(C)nc1C [Compound 8]
[1]; [3]
  IC50: 0.282 µM
[1]; [4]
  IC50: 0.275 µM
[2]; [3]
  IC50: > 5 µM
[2]; [4]
  IC50: > 5 µM

## COc1cc(Nc2cccc3c2nc(-c2ccc(F)cc2)n3C)ccc1-c1ccnn1C [Compound 9]
[1]; [3]
  IC50: 0.24 µM
[1]; [4]
  IC50: 0.399 µM
[2]; [3]
  IC50: > 3 µM
[2]; [4]
  IC50: > 3 µM

## Cc1ncc(-c2ccc(Nc3cccc4c3nc(-c3ccc(F)cc3)n4C(C)C)nc2)o1 [Compound 15]
[1]; [3]
  IC50: 0.1 µM
[2]; [3]
  IC50: > 3 µM

## Cc1ncc(-c2ccc(Nc3cccc4c3nc(-c3ccc(F)cc3)n4C(C)C)cc2)o1 [Compound 19]
[1]; [5]
  IC50: 0.049 µM
[1]; [6]
  IC50: 0.028 µM
[2]; [5]
  IC50: > 3 µM
[2]; [6]
  IC50: > 3 µM

## COc1cccc(-c2nc3c(Nc4ccc(-c5ocnc5C)c(OC)c4)cccc3n2C)c1 [Compound 20]
[1]; [5]
  IC50: 0.013 µM
[1]; [6]
  IC50: 0.017 µM
[2]; [5]
  IC50: > 1 µM
[2]; [6]
  IC50: > 1 µM

## COc1cccc(-c2nc3c(Nc4ccc(-c5cnc(C)o5)cc4)cccc3n2C(C)C)c1 [Compound 21]
[1]; [6]
  IC50: 0.009 µM
[2]; [6]
  IC50: > 3 µM

## Cc1ncc(-c2ccc(Nc3nccc4c3nc(-c3ccc(F)cc3)n4C)cc2)o1 [Compound 23]
[1]; [5]
  IC50: 0.417 µM
[1]; [6]
  IC50: 0.398 µM
[2]; [5]
  IC50: > 3 µM
[2]; [6]
  IC50: > 3 µM

## COc1cc(Nc2cccc3c2nc(-c2ccc(F)cc2)n3C)ccc1-c1oc(C)nc1C [Compound 24]
[1]; [5]
  IC50: 0.056 µM
[1]; [6]
  IC50: 0.055 µM
[2]; [5]
  IC50: > 3 µM
[2]; [6]
  IC50: > 3 µM

## COc1cc(Nc2nccc3c2nc(-c2ccc(F)cc2)n3C(C)C)ccc1-c1cnc(C)o1 [Compound 27]
[1]; [6]
  IC50: 0.676 µM
[2]; [6]
  IC50: > 3 µM

## Cc1ncc(-c2ccc(Nc3cccc4c3nc(-c3ccc(F)cc3)n4C(C)C)cc2F)o1 [Compound 28]
[1]; [6]
  IC50: 0.11 µM
[2]; [6]
  IC50: > 3 µM

## Cc1ncc(-c2ccc(Nc3cccc4c3nc(-c3ccc(F)cc3)n4C)cn2)o1 [Compound 29]
[1]; [5]
  IC50: 0.029 µM
[1]; [6]
  IC50: 0.028 µM
[2]; [5]
  IC50: > 3 µM
[2]; [6]
  IC50: > 3 µM

## Cc1ncoc1-c1ccc(Nc2cccc3c2nc(-c2cccc(Cl)c2)n3C)nc1 [Compound 32]
[1]; [5]
  IC50: 0.235 µM
[1]; [6]
  IC50: 0.282 µM
[2]; [5]
  IC50: > 10 µM
[2]; [6]
  IC50: > 10 µM

## COc1cc(-c2nc3c(Nc4ccc(-c5ocnc5C)cn4)cccc3n2C)ccc1Cl [Compound 33]
[1]; [5]
  IC50: 0.102 µM
[1]; [6]
  IC50: 0.141 µM
[2]; [5]
  IC50: > 10 µM
[2]; [6]
  IC50: > 10 µM

## Cc1ncoc1-c1ccc(Nc2cccc3c2nc(-c2ccc(F)cc2)n3C(C)(C)C)cn1 [Compound 34]
[1]; [5]
  IC50: 0.016 µM
[1]; [6]
  IC50: 0.11 µM
[2]; [5]
  IC50: > 3 µM
[2]; [6]
  IC50: > 3 µM

## COCCn1c(C)nc2c(Nc3ccc(-c4cnc(C)s4)c(OC)c3)cccc21 [Compound 37]
[1]; [6]
  IC50: 0.38 µM
[2]; [6]
  IC50: > 3 µM

## Cc1ncc(-c2ccc(Nc3cccn4cc(-c5ccccc5C)nc34)cc2)o1 [Compound 39]
[1]; [5]
  IC50: 0.053 µM
[1]; [6]
  IC50: 0.051 µM
[2]; [5]
  IC50: > 3 µM
[2]; [6]
  IC50: > 3 µM

## Cc1ncc(-c2ccc(Nc3cccn4cc(-c5ccc(F)cc5)nc34)cc2)o1 [Compound 42]
[1]; [5]
  IC50: 0.096 µM
[1]; [6]
  IC50: 0.123 µM
[2]; [5]
  IC50: > 3 µM
[2]; [6]
  IC50: > 3 µM

## Cc1cc(F)ccc1-c1cn2cccc(Nc3ccc(-c4ocnc4C)nc3)c2n1 [Compound 44]
[1]; [5]
  IC50: 0.14 µM
[1]; [6]
  IC50: 0.138 µM
[2]; [5]
  IC50: > 10 µM
[2]; [6]
  IC50: > 10 µM

## Cc1ccc(-c2cn3cccc(Nc4ccc(-c5ocnc5C)nc4)c3n2)c(F)c1 [Compound 45]
[1]; [5]
  IC50: 0.848 µM
[1]; [6]
  IC50: 0.813 µM
[2]; [5]
  IC50: > 30 µM
[2]; [6]
  IC50: > 30 µM

## Cc1ncc(-c2ccc(Nc3cccn4cc(-c5ccc(F)cc5C)nc34)cc2)o1 [Compound 46]
[1]; [6]
  IC50: 0.11 µM
[2]; [6]
  IC50: > 3 µM

## Cc1ccc(-c2cn3cccc(Nc4ccc(-c5cnc(C)o5)cc4)c3n2)c(F)c1 [Compound 47]
[1]; [5]
  IC50: 0.486 µM
[1]; [6]
  IC50: 0.447 µM
[2]; [5]
  IC50: > 3 µM
[2]; [6]
  IC50: > 3 µM

## COc1cc(Nc2cccn3cc(-c4cc(F)ccc4C)nc23)ccc1-c1cnc(C)o1 [Compound 48]
[1]; [6]
  IC50: 0.132 µM
[2]; [6]
  IC50: > 10 µM

## Cc1ccc(C(F)(F)F)cc1-c1cn2cccc(Nc3ccc(-c4ocnc4C)nc3)c2n1 [Compound 51]
[1]; [6]
  IC50: 0.072 µM
[2]; [6]
  IC50: > 3 µM

## COc1cc(Nc2cccn3cc(-c4ccccc4C)nc23)ccc1-c1cnc(C)s1 [Compound 52]
[1]; [6]
  IC50: 0.166 µM
[2]; [6]
  IC50: > 3 µM

## Cc1ncc(-c2ccc(Nc3nccc4c3nc(-c3ccc(F)cc3F)n4C)cc2)o1 [Compound 53]
[1]; [6]
  IC50: 1.91 µM
[2]; [6]
  IC50: > 10 µM

## Cc1ncc(-c2ccc(Nc3nccc4c3nc(-c3ccc(F)cc3F)n4C)cc2F)o1 [Compound 55]
[1]; [6]
  IC50: 3.02 µM
[2]; [6]
  IC50: > 10 µM

## Cc1ncc(-c2ccc(Nc3nccn4cc(-c5ccc(F)cc5C)nc34)cc2)o1 [Compound 57]
[1]; [6]
  IC50: 1.07 µM
[2]; [6]
  IC50: > 10 µM

## Cc1ncc(-c2ccc(Nc3nc(Br)cn4cc(-c5ccc(F)cc5C)nc34)cc2)o1 [Compound 60]
[1]; [6]
  IC50: 3.02 µM
[2]; [6]
  IC50: > 3 µM

## Cc1ncoc1-c1ccc(Nc2cccc3c2nc(COc2ccccc2)n3C)cn1 [Compound 61]
[1]; [6]
  IC50: 1.07 µM
[2]; [6]
  IC50: > 3 µM

## COc1cc(-c2nc3c(Nc4ccc(-c5cnc(C)o5)c(OC)c4)cccc3n2C)ccc1Cl [Compound 62]
[1]; [6]
  IC50: 0.009 µM
[2]; [6]
  IC50: > 3 µM
